We go through two compounds from patent publication US20260365699A1, “Compound Production Method” (The University of Tokyo, priority 2022, published 2026).

One series deals with T1, TLR10 (Homo sapiens, UniProt Q9BXR5).
T1 sequence (Q9BXR5 20-811): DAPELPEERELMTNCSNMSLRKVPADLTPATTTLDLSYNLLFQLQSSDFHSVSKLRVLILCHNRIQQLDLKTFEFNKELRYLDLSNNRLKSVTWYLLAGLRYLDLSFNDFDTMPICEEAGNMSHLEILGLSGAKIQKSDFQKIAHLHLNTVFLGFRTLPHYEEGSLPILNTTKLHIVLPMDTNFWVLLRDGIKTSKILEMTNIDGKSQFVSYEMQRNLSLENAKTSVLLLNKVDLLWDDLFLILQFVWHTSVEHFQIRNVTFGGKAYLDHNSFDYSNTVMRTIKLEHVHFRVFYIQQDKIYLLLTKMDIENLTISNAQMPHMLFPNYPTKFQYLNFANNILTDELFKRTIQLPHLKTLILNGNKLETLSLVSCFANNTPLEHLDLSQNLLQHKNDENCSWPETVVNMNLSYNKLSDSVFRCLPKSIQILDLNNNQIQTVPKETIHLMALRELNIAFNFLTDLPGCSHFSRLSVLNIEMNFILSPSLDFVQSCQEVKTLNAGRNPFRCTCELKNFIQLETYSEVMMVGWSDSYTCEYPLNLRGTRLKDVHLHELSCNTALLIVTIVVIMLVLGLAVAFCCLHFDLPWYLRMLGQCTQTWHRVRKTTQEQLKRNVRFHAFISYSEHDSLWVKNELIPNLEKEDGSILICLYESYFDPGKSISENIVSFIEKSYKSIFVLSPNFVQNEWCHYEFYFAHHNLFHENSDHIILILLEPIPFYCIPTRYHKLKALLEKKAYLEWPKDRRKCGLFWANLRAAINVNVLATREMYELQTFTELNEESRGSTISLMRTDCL
The experiment in a line: Surface plasmon resonance (SPR) binding affinity to TLR10. The method, then: Next, the binding affinity of each of the synthesized thiopeptides (14 types excluding IR1-ct and IR15-ct in FIG. 8) to the target IRAK4 and TLR10 was examined using surface plasmon resonance (SPR). […] Next, using an ADP-Glo-based kinase inhibition assay, the IC50 values of 4 types of thiopeptides for IRAK4 excluding IR1-ct and IR15-ct were evaluated.

A further series has as its system AXIN2 mRNA. The experiment in a line: AXIN2 mRNA transcription in HCT116 cells (RT-qPCR). The series is classed as cell-based, human. The method, then: (§1) The sub-confluent HCT116 cells were treated with the indicated compounds for 24 hours and the cellular levels of TNIK, TNIK pSer764 (autophosphorylation product), c-Myc, and Axin2 were analyzed by an immunoblotting method (FIG. 7(b)) and RT-qPCR (FIG. 7(c)).

In the next series the test system is Axin2. The experiment in a line: Axin2 protein level in HCT116 cells (immunoblotting). The series is classed as cell-based, human. The settings on record: 20 μM, 24 hours. The method, then: as §1
(In general: In western blotting, separated proteins are transferred to a membrane and probed.)

In the next series the test system is TNIK pSer764. The experiment in a line: Immunoblotting of TNIK pSer764 (TNIK autophosphorylation) in HCT116 cells. It is filed as cell-based, human. The method, then:
as §1
Nat. Commun. 2016, 7, 12586).

The next series relates to MYC mRNA. Kind of series: MYC mRNA transcription in HCT116 cells (RT-qPCR). It is filed as cell-based, human. The method, then:
as §1
On the technique in general: In qPCR the cycle at which signal appears reflects the starting amount.

The subject of a further series is HEK293H cells. Kind of series: Chloroalkane penetration assay (CAPA) in HEK293H cells. It is filed as cell-based, human. As to conditions: chloroalkane-labeled derivatives. The method, then:
as §1
Next, it was confirmed whether or not the obtained compound could also access an intracellular target protein (TNIK is localized in the cytoplasm and the cell nucleus) in a human cell model. First, a chloroalkane penetration assay (CAPA) was performed on 4 types (TP1-ct, TP8-ct, TP14-ct, and TP15-ct) out of the 6 types of chloroalkane-labeled thiopeptide derivatives shown in FIG. 5 in order to measure an uptake degree into the cytoplasm (Peraro, L.; Deprey, K. L.; Moser, M. K.; Zou, Z.; Ball, H. L.; Levine, B.; and Kritzer, J. A. Cell Penetration Profiling Using the Chloroalkane Penetration Assay. J. Am. Chem. Soc. 2018, 140, 11360-11369).

For series [1], the system named is TNIK. The experiment in a line: TNIK protein level in HCT116 cells (immunoblotting). It is filed as cell-based, human. The method, then:
as §1

Series [2] deals with T2, TNIK (Homo sapiens, UniProt Q9UKE5). The experiment in a line: Kinetic analysis (Lineweaver-Burk plots) of TNIK inhibition. The series is classed as biochemical. The settings on record: role: inhibitor.
Series [3] in a line: Metabolic stability in human serum (LC/MS). It is filed as in vitro ADME. The settings on record: 37 °C. The method, then: The compounds were incubated with a human serum at 37 °C, and the amount of the residual test substance at various points in time was quantified by LC/MS with respect to an internal standard substance. […] Next, it was examined whether or not the half-lives of the compounds were affected by the reactivity of the Dha residue. The Dha residue may be conjugated with various serum thiols.
In addition, the metabolic stability of all of the 14 types of candidate thiopeptides was examined. The compound was incubated with the human serum at 37 °C, and the amount of the residual thiopeptide at various points in time was quantified by LC/MS with respect to the internal standard substance. The half-life of the thiopeptide for TLR10 was generally as long as 38.2 hours, and the thiopeptide was stable.

The target in series [4] is T2, TNIK. The experiment in a line: Surface plasmon resonance (SPR) binding affinity to TNIK. The settings on record: saturated concentration of ATP (1 mM; 15-fold higher than KM). The source says:
Surface plasmon resonance (SPR) was used to evaluate the binding affinity of the thiopeptide synthesized in Example 2 to TNIK.
(In SPR one partner is held on a chip, and binding of the other changes the refractive index at the surface.)

The target in another series is T3, MST1 (Homo sapiens, UniProt Q13043).
T3 sequence (Q13043 1-487): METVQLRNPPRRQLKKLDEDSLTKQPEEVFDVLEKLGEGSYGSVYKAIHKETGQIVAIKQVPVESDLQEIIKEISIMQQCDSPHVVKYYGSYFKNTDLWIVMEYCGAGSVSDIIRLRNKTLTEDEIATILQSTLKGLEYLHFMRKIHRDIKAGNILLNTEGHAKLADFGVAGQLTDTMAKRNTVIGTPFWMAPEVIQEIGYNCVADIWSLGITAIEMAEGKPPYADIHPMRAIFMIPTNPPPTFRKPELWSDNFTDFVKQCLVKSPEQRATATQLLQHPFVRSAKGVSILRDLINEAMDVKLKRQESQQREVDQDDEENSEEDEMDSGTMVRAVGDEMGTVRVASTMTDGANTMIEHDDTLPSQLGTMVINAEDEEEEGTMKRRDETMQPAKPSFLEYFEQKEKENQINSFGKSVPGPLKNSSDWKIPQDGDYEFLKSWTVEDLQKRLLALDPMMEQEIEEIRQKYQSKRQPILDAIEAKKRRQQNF
Kind of series: Kinase selectivity profiling (MST1). The series is classed as biochemical. As to conditions: concentration of 1 μM. The method, then:
(§2) Next, a kinase selectivity profiling experiment was carried out using a panel of various human kinases.

Series [5] can be described thus: Stability / reactivity towards glutathione (GSH), LC/MS. The series is classed as physicochemical.
A further series relates to c-Myc. Kind of series: c-Myc protein level in HCT116 cells (immunoblotting). The series is classed as cell-based, human. The settings on record: 20 μM, 24 hours. The method, then: as §1
Another series concerns the target LOK (Homo sapiens, UniProt O94804). Kind of series: Kinase selectivity profiling (LOK). The series is classed as biochemical. The settings on record: concentration of 1 μM. The method, then:
as §2

In another series the test system is TNIK mRNA. The experiment in a line: TNIK mRNA level in HCT116 cells (RT-qPCR). It is filed as cell-based, human. The method, then:
as §1

*1 amine or outer side, *2 acyl side, *3 side chain or, on linkers, in order; H or OH if unused. Where a SMILES comes first, the peptide text is derived from it. Bridges are numbered along the chain shown (N, C = ends). X1 = C=C(N[*:2])c1nc(-c2nc(-c3nc(C(=O)OC)cs3)ccc2C(=O)[*:1])cs1

T2 sequence (Q9UKE5 whole entry): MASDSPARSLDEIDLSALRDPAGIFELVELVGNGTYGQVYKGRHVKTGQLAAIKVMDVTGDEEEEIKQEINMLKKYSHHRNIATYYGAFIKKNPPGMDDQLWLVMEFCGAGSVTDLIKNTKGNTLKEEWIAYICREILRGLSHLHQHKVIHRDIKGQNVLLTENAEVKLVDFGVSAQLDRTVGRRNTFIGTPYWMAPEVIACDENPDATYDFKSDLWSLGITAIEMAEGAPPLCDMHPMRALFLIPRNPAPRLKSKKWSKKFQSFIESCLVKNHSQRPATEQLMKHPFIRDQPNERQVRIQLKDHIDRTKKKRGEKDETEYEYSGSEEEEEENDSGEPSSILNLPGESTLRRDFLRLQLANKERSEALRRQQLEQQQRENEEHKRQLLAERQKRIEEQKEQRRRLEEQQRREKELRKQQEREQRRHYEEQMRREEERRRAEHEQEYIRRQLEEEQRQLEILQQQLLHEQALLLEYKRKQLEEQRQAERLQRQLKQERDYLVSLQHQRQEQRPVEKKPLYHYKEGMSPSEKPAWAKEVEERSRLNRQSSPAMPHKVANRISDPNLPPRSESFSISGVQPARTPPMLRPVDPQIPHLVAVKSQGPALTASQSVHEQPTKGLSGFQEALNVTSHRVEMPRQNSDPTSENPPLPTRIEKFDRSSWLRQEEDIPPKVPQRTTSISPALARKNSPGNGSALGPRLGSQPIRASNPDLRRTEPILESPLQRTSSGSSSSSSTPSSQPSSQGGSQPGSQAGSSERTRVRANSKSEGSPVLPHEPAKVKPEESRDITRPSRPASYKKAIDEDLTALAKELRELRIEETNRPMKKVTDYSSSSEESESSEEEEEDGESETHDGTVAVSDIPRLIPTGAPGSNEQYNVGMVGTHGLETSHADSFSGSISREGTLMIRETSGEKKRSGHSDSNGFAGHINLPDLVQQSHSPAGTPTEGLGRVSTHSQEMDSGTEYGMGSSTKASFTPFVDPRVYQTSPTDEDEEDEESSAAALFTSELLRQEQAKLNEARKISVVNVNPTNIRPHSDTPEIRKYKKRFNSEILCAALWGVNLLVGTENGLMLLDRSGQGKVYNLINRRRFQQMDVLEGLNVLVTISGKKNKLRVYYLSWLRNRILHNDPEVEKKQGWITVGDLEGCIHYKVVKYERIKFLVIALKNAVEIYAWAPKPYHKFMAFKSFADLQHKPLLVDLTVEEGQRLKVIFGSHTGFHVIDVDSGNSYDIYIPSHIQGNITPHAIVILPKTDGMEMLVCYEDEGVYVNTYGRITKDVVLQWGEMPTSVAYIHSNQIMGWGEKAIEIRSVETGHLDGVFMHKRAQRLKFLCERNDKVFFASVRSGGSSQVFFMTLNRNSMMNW
Sequence of LOK (O94804 whole entry): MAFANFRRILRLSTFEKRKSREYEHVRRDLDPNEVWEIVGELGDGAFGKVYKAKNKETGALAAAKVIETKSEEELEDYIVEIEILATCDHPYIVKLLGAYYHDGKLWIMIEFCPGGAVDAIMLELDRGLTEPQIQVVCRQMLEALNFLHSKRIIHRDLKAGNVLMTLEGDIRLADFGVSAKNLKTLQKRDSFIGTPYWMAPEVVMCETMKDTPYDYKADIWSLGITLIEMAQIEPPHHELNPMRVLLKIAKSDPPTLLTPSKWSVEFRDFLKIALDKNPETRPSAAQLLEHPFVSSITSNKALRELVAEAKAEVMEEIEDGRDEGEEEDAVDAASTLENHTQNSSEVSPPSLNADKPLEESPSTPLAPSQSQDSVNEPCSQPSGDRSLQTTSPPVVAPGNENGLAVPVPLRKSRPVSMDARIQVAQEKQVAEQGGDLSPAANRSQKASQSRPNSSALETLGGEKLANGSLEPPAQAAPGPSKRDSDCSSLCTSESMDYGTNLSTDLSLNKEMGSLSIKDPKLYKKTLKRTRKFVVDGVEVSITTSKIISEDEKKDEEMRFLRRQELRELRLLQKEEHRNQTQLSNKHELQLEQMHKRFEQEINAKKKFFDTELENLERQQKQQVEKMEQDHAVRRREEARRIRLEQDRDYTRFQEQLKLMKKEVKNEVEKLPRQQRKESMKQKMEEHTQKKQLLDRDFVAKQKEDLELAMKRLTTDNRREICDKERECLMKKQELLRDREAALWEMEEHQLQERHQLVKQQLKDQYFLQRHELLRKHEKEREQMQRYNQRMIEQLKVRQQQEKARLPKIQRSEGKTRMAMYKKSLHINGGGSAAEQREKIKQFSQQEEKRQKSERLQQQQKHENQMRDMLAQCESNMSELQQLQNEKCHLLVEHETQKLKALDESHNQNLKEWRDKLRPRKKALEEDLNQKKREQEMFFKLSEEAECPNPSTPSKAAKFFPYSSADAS

With `C=C1NC(=O)[C@H](Cc2c[nH]cn2)NC(=O)[C@H]([C@@H](C)CC)NC(=O)[C@H](C(C)C)NC(=O)[C@H](C(C)C)NC(=O)[C@H](CC(N)=O)NC(=O)[C@H](C(C)C)NC(=O)[C@H](CCCNC(=N)N)NC(=O)[C@H](CO)NC(=O)[C@H](CC(C)C)NC(=O)[C@H](CCC(=O)O)NC(=O)[C@H](CC(C)C)NC(=O)[C@H](CO)NC(=O)[C@H](Cc2c[nH]c3ccccc23)NC(=O)c2ccc(-c3nc(C(=O)OC)cs3)nc2-c2csc1n2` [TL7] (WSLELSRVNVVIH; linker N-C via X1), on TLR10, binding was characterised by a dissociation constant (Kd) of 306 nM.
With `C=C1NC(=O)c2csc(n2)[C@H]([C@@H](C)O)NC(=O)[C@H](C)NC(=O)[C@H]([C@@H](C)CC)NC(=O)[C@H](CCCNC(=N)N)NC(=O)CNC(=O)[C@H](CCCNC(=N)N)NC(=O)[C@H]([C@@H](C)O)NC(=O)[C@H](CCCNC(=N)N)NC(=O)[C@H]([C@@H](C)CC)NC(=O)[C@H]([C@@H](C)O)NC(=O)[C@H](Cc2c[nH]c3ccccc23)NC(=O)c2ccc(-c3nc(C(=O)OC)cs3)nc2-c2csc1n2` [TP15], the “transcription of AXIN2 mRNA” value in the series on AXIN2 mRNA is “suppressed in a concentration-dependent manner”. Further, the “protein level of Axin2” value with Axin2 was “decreased”. Also, in the series on TNIK pSer764 (20 μM of TP15, 24 hours, immunoblotting), the “level of TNIK pSer764” value is reported as “decreased”. In the series with TNIK pSer764 (24 hours), the “TNIK autophosphorylation, in words (figure legend)” value was “inhibition of TNIK autophosphorylation”. For the same compound, in the series with MYC mRNA, the “transcription of MYC mRNA” value is given as “suppressed in a concentration-dependent manner”. Further, the “cytoplasmic uptake (CAPA), in words” value in the series with HEK293H cells is given as “efficient cytoplasmic translocation”. Further, the “overall expression of TNIK, protein level” value in the series with TNIK [1] is reported as “not TP15”. Moreover, the “mode of TNIK inhibition” value on TNIK [2] is recorded as “substrate competitive inhibitor”. In addition, the “stability in human serum, in words” value in [3] was “short half-life”. The “binding to TNIK in the presence of ATP” value on TNIK [4] was “bonded to TNIK in the presence of the saturated concentration of ATP”. In addition, at MST1, the “inhibition of MST1” value is “inhibited”. For the same compound, the “residual amount in the presence of GSH” value in [5] (10 mM GSH, after 24 hours) is > 95%. The “reactivity with GSH, in words” value in [5] (increasing concentration of glutathione (GSH)) is listed as “stable”. Besides, in the series on c-Myc, the “protein level of c-Myc” value is listed as “decreased”. In addition, on LOK, the “inhibition of LOK” value was “inhibited”. Also, the “overall expression of TNIK, mRNA level” value in the series on TNIK mRNA is “not TP15”.
